Reference: patent US8183236B2, “Compounds with HIV-1 integrase inhibitory activity and use thereof as anti-HIV/AIDS therapeutics” (University of Southern California, priority 2007, dated 2012)

Key:
[1] = target: T1, HIV-1 integrase (wild-type IN) (Human immunodeficiency virus type 1 group M subtype B, UniProt P12497); experiment: HIV-1 integrase 3′-processing assay (32P-labeled 21-mer, gel); type: biochemical
In short: (§1)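 Wild-type IN at 200 nM preincubated with inhibitor 30 min at 30 °C in MnCl2 (7.5 mM), pH 7.2 MOPS buffer with 10% DMSO, then 20 nM 5′-32P-labeled 21-mer duplex added for 1 h. 19-mer and strand-transfer products resolved on denaturing 20% gels by phosphorimaging; IC50 from log concentration versus % inhibition.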

[2] = target: T1, HIV-1 integrase (wild-type IN); experiment: HIV-1 integrase strand transfer assay (32P-labeled 21-mer, gel); type: biochemical
In short: as §1

[3] = unit inferred, read-out: IN inhibition activity 3′-processing
[4] = unit inferred, read-out: IN inhibition activity Strand transfer
[5] = wild-type IN 200 nM, 7.5 mM MnCl2, read-out: Inhibition of IN Catalytic Activities IC50 (μM) 3′-processing
[6] = wild-type IN 200 nM, 7.5 mM MnCl2, read-out: Inhibition of IN Catalytic Activities IC50 (μM) Strand Transfer
[7] = Table 54, read-out: IN inhibition activity 3′-processing
[8] = Table 54, read-out: IN inhibition activity Strand transfer
[9] = Table 53, structurally diverse compounds, read-out: IN inhibition activity 3′-processing
[10] = Table 53, structurally diverse compounds, read-out: IN inhibition activity Strand transfer
[11] = unit inferred, read-out: HIV-1 IN Inhibitory Activities 3′-processing
[12] = unit inferred, read-out: HIV-1 IN Inhibitory Activities Strand transfer

| Structure (SMILES) | IC50 [1, 3] [µM] | IC50 [2, 4] [µM] | also measured |
| --- | --- | --- | --- |
| O=C(O)c1cc(-c2ccc(/C=N/Nc3nc4nonc4nc3Nc3cccc(Br)c3)o2)ccc1O [AV15A24] | 5 ± 3 | 3.4 ± 2 |  |
| Oc1cccc2ccc(/C=N/N=C/c3ccc4cccc(O)c4n3)nc12 [RT3] |  |  | IC50 [1, 5]: 45 µM; IC50 [2, 6]: 69 µM |
| CCOc1ccc(C(=O)C2=C(O)C(=O)N(c3nccs3)C2c2ccc(O)c(OC)c2)cc1 (stereo not shown) [AS161] | 57 ± 27 | 30 ± 7 |  |
| COc1ccc(/C=C2\C(=O)N(c3nnn[nH]3)N=C2C)cc1OCc1ccccc1Cl [GLD12] |  |  | IC50 [1, 7]: 14 ± 7 µM; IC50 [2, 8]: 5 ± 3 µM |
| CC1=C(C#N)c2nc(N)c(C#N)c(C)c2/C1=C/c1ccc(-c2cccc(C(=O)O)c2)o1 [AV15A11] | 24 ± 16 | 20 ± 13 |  |
| CCOc1cc(/C=C2\C(=O)N(c3nnn[nH]3)N=C2C)cc(Cl)c1OCC [GLD12A4] |  |  | IC50 [1, 7]: 7 ± 6 µM; IC50 [2, 8]: 4 ± 2 µM |
| O=C(O)C(O)C(O)c1nc2cc3ccccc3cc2[nH]1 (stereo not shown) [GLD20] |  |  | IC50 [1, 9]: > 100 µM; IC50 [2, 10]: 46 ± 12 µM |
| COc1ccc(-c2nnc(SCC(=O)N/N=C/c3cccc(Oc4ccccc4)c3)n2-c2ccccc2)cc1OC [LX6] | > 100 | > 100 |  |
| COc1cccc(NC(=O)c2sc3[nH]c(=O)c(C(=O)O)cc3c2N)c1 [GLD45] | 82 ± 13 | 43 ± 12 |  |
| O=C(NC(=S)N1CCN(c2cc3c(cc2F)c(=O)c(C(=O)O)cn3C2CC2)CC1)c1ccc(Cl)cc1 [ROM3A9] |  |  | IC50 [1, 5]: 80 µM; IC50 [2, 6]: 53 µM |
| O=C(CCN1C(=O)/C(=C/c2ccc3c(c2)OCO3)SC1=S)Nc1ccc2c(c1)OCO2 [Compound X187] |  |  | IC50 [1, 5]: 97 ± 6 µM; IC50 [2, 6]: 93 ± 12 µM |
| COc1ccc(CCNC(=O)CC(=O)N/N=C/c2ccco2)cc1OC [Example X134] |  |  | IC50 [1, 11]: > 100 µM; IC50 [2, 12]: 90 µM |
| CSc1ccc(/C=N/NC(=O)CSc2nnc(-c3ccc(Cl)cc3)n2-c2ccccc2)cc1 [HD39] | > 100 | > 100 |  |
| O=C(N/N=C/c1ccc(-c2ccc(Cl)c(Cl)c2)o1)c1ccccc1O [OT8] |  |  | IC50 [1, 5]: 31 ± 16 µM; IC50 [2, 6]: 14 ± 4 µM |
| O=C(O)c1cc(-c2ccc(/C=C/c3cc(C(F)(F)F)[nH]c(=O)n3)o2)ccc1Cl [AV15A12] | 74 ± 32 | 50 ± 25 |  |
| COc1ccc(N(CC(=O)N/N=C/c2c(O)ccc3ccccc23)S(C)(=O)=O)cc1Cl [Example X279] |  |  | IC50 [1, 11]: 95 µM; IC50 [2, 12]: 59 µM |
| O=C(O)c1cc(-c2ccc(/C=N/Nc3nc4nonc4nc3Nc3ccc(F)cc3)o2)ccc1Cl [AV15A15] | 12 ± 6 | 6.5 ± 1 |  |
| CN(C)c1nc(NCc2ccccc2)nc(N/N=C/c2ccc(-c3cccc(C(=O)O)c3)o2)n1 [AV15A26] | > 100 | 88 |  |
| O=C(C1=C(O)C(=O)N(c2nc3ccccc3s2)C1c1cccnc1)c1ccc(Cl)cc1 (stereo not shown) [Compound M28A21] | > 100 | 90 ± 10 |  |
| COc1ccc(-c2nnc(SCC(=O)NNC(=O)c3ccccc3O)n2-c2ccccc2)cc1OC [AS9A10] | 22 ± 1 | 21 ± 1 |  |
| O=C(O)CSc1nnc(-c2ccco2)c(-c2ccco2)n1 [GLD2] | 18 ± 4 | 5 ± 3 |  |

| Structure (SMILES) | IC50 [1, 3] [µM] | IC50 [2, 4] [µM] | also measured |
| --- | --- | --- | --- |
| Cn1c(=O)c(C(=O)Nc2ccccc2C(F)(F)F)c(O)c2ccccc21 [XR12] |  |  | IC50 [1, 5]: 81 µM; IC50 [2, 6]: 28 µM |
| O=C(NC(=S)Nc1ccc(O)c(C(=O)O)c1)c1ccccc1 [Compound X199] |  |  | IC50 [1, 5]: > 100 µM; IC50 [2, 6]: > 100 µM |
| COc1ccc(C2C(C(=O)c3ccc(Br)cc3)=C(O)C(=O)N2c2cc(C(C)(C)C)on2)cc1OC (stereo not shown) [AS171] | 45 ± 8 | 43 ± 26 |  |
| CC1=C(C#N)c2nc(N)c(C#N)c(C)c2/C1=C/c1ccc(-c2ccccc2C(=O)O)o1 [AV15A54] | > 100 | > 100 |  |
| COc1ccc(O)c(/C=N/NC(=O)CSc2nnc(-c3ccncc3)n2-c2ccccc2)c1 [MC41] | > 100 | > 100 |  |
| Cc1ccc(/C=C2\SC(=S)N(CCC(=O)Nc3ccc(S(=O)(=O)Nc4nccs4)cc3)C2=O)cc1 [Compound X124] |  |  | IC50 [1, 5]: 83 ± 21 µM; IC50 [2, 6]: 44 ± 16 µM |
| O=C(NCc1cccs1)c1c[nH]c2ccc(S(=O)(=O)Nc3ccc4c(c3)OCCO4)cc2c1=O [ROM3A11] |  |  | IC50 [1, 5]: 91 µM; IC50 [2, 6]: 90 µM |
| COc1cc(-c2nc3ccccn3c2/N=C/c2ccc(-c3ccc(Cl)c(C(=O)O)c3)o2)ccc1O [AV15A25] | > 100 | > 100 |  |
| O=C(Nc1ccc(O)c(-c2nc3cc(Cl)ccc3o2)c1)c1cccnc1 [Compound X255] |  |  | IC50 [1, 11]: 61 µM; IC50 [2, 12]: 10 µM |
| NC(=S)N1CCN(c2c(F)c(N)c3c(=O)c(C(=O)O)cn(C4CC4)c3c2F)CC1 [ROM3A5] |  |  | IC50 [1, 5]: > 100 µM; IC50 [2, 6]: > 100 µM |
| O=C(O)c1cccc(-c2ccc(/C=N/Nc3nc4nonc4nc3Nc3ccc(F)cc3)o2)c1 [AV30] | 10 ± 3 | 4 ± 1 | IC50 [1, 5]: 10 µM; IC50 [2, 6]: 4 µM |
| CCCCCn1c(=O)c(C(=O)Nc2cc([N+](=O)[O-])ccc2O)c(O)c2ccccc21 [XR6] |  |  | IC50 [1, 5]: 9 µM; IC50 [2, 6]: 9 µM |
| CCOC(=O)c1c(-c2ccccc2)csc1NC(NC(=O)c1ccco1)C(=O)c1ccc(C)cc1 (stereo not shown) [Example X88] |  |  | IC50 [1, 11]: > 100 µM; IC50 [2, 12]: 79 µM |
| CCc1ccc(C=C2SC(=S)N(CC(=O)Nc3cccc(C(=O)O)c3)C2=O)cc1 [Compound X91] |  |  | IC50 [1, 5]: > 100 µM; IC50 [2, 6]: > 100 µM |
| COc1cc(/C=C2/SC(=S)N(CC(=O)O)C2=O)ccc1OCc1ccccc1 [OT3] |  |  | IC50 [1, 5]: > 100 µM; IC50 [2, 6]: 92 ± 7 µM |
| COc1ccc(C2C(C(=O)c3ccc(Br)cc3)=C(O)C(=O)N2CCc2ccccc2)cc1OC (stereo not shown) [AS143] | 60 ± 3 | 42 ± 10 |  |
| CCOC(=O)c1sc(N2C(=O)C(O)=C(C(=O)c3ccc(C)cc3)C2c2ccc(F)cc2)nc1C (stereo not shown) [Compound M28A18] | > 100 | 33 ± 25 |  |
| O=C(COc1ccccc1[N+](=O)[O-])Nc1ccc(O)c(-c2nc3ccccc3s2)c1 [Compound X257] |  |  | IC50 [1, 11]: 99 µM; IC50 [2, 12]: 80 µM |
| O=C(N/N=C/c1cc(Br)ccc1O)/C(=C/C=C/c1ccccc1)NC(=O)c1ccccc1 [Compound X234] |  |  | IC50 [1, 11]: 90 µM; IC50 [2, 12]: 23 µM |
| COc1ccc(C=C2SC(=S)N(CCC(=O)Nc3cccc(C(=O)O)c3)C2=O)cc1 [Compound X26] |  |  | IC50 [1, 5]: > 100 µM; IC50 [2, 6]: > 100 µM |
| N#Cc1c(-c2ccc(Cl)cc2)cc(-c2ccccc2)nc1SCC(=O)O [GLD2A2] | 98 ± 10 | 60 ± 12 |  |

| Structure (SMILES) | IC50 [1, 3] [µM] | IC50 [2, 4] [µM] | also measured |
| --- | --- | --- | --- |
| COc1cc(C(=O)N/N=C/c2ccc(-c3cccc(C(=O)O)c3)o2)cc(OC)c1OC [AV15A38] | > 100 | 49 ± 12 |  |
| O=C(CCN1C(=O)/C(=C/c2ccccc2Cl)SC1=S)Nc1ccc([N+](=O)[O-])cc1 [Compound X200] |  |  | IC50 [1, 5]: > 100 µM; IC50 [2, 6]: > 100 µM |
| O=C(c1ccccc1)c1cc(Br)ccc1NC(=O)c1nc[nH]c1C(=O)O [Example X160] |  |  | IC50 [1, 11]: 16 µM; IC50 [2, 12]: 17 µM |
| CCn1cc(C(=O)O)c(=O)c2cc(F)c(N3CCN(C(=O)c4cccc(C)c4)CC3)cc21 [ROM3A3] |  |  | IC50 [1, 5]: > 100 µM; IC50 [2, 6]: > 100 µM |
| Cc1nnc(N/N=C/c2ccc(-c3ccccc3C(=O)O)o2)n1N [AV15A37] | > 100 | > 100 |  |
| Clc1ccc(-c2ccc(/C=N/Nc3nc(Nc4ccccc4)nc(Nc4ccccc4)n3)o2)cc1 [AV15A39] | > 100 | > 100 |  |
| CC1=C(C#N)c2nc(N)c(C#N)c(C)c2/C1=C/c1ccc(-c2ccccc2C(=O)O)o1 [AV15A45] | 91 ± 16 | 39 |  |
| O=C(O)CSc1nc(Nc2ccccc2)nc(N2CCOCC2)n1 [GLD2A18] | > 100 | > 100 |  |
| CC(C)(C)c1ccc(C(=O)N/N=C/c2ccc(-c3cccc(C(=O)O)c3)o2)cc1 [AV15A36] | > 100 | 56 ± 22 |  |
| Cc1ccc(C2C(C(=O)c3ccc(Cl)cc3)=C(O)C(=O)N2CC(=O)O)cc1 (stereo not shown) [Compound X81] | 84 ± 23 | 69 ± 36 | IC50 [1, 11]: 84 µM; IC50 [2, 12]: 69 µM |
| O=C(NNC(=O)c1c(O)c2ccccc2[nH]c1=O)c1ccccc1Cl [XR44] |  |  | IC50 [1, 5]: 28 µM; IC50 [2, 6]: 26 µM |
| CCOc1ccc(C(=O)C2=C(O)C(=O)N(c3nccs3)C2c2ccc(OC)cc2)cc1 (stereo not shown) [Compound M28A11] | > 100 | 90 ± 17 |  |
| COC(=O)c1ccccc1-c1ccc(/C=C(\C#N)c2nc3ccccc3[nH]2)o1 [AV15A46] | > 100 | > 100 |  |
| CCn1cc(C(=O)O)c(=O)c2cc(F)c(N3CCN(C(=S)S)CC3)cc21 [ROM3A6] |  |  | IC50 [1, 5]: > 100 µM; IC50 [2, 6]: > 100 µM |
| CCOc1cc(CNc2nn[nH]n2)cc(Cl)c1OCc1ccc(Cl)cc1 [GLD19] |  |  | IC50 [1, 9]: > 100 µM; IC50 [2, 10]: 52 ± 8 µM |
| O=C(O)CSc1nc(-c2ccccc2)cc(C(F)(F)F)n1 [GLD2A4] | > 100 | > 100 |  |
| O=C(O)c1cc(-c2ccc(/C=N/Nc3nc4nonc4nc3Nc3ccccc3F)o2)ccc1Cl [AV15A14] | 16 ± 8 | 13 ± 5 |  |
| Cc1cc(C)nc(SCc2nnc(SCC(=O)NNC(=O)c3ccccc3O)n2C)n1 [AS9A5] | < 100 | < 100 |  |
| O=C(O)c1cc(-c2ccc(/C=c3\sc4nc5ccccc5n4c3=O)o2)ccc1Cl [AV15A22] | 23 ± 3 | 15 ± 4 |  |
| O=C(Nc1cc(C(=O)Nc2ccccc2C(=O)O)cc(C(=O)Nc2ccccc2C(=O)O)c1)c1ccccc1 [ROM1] |  |  | IC50 [1, 11]: 78 µM; IC50 [2, 12]: 20 µM |
| Cc1cc2nc3s/c(=C\c4ccc(-c5cccc(C(=O)O)c5)o4)c(=O)n3c2cc1C [AV15A32] | > 100 | > 100 |  |
